According to PubChem BioAssay AID2060625 (Molecular Pharmacology Branch, DTP, NCI, 2025):
Several values for one entry are separate records, joined by “and”; a condition that tells them apart may be missing. Equal entries are not always repeated.

System: 186277-243-T-J2-PDC spheroids with HUVEC/MSC, viability
Assay: Anticancer human tumor 186277-243-T-J2-PDC patient-derived colon adenocarcinoma cell line growth inhibition [CLK]
Conditions: for viability, T/C: stronger effect = lower value
Method in brief: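 Multi-cell-type spheroids combined patient-derived tumor cells with HUVEC endothelial cells and human mesenchymal stem cells. Paired agents were dosed in half-log steps down from about clinical Cmax, or from 10 microM where Cmax was unknown.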

[1] = curve of first compound, second compound 0.0316 µM
[2] = curve of first compound, second compound 0.1 µM
[3] = curve of first compound, second compound 0.316 µM
[4] = curve of first compound, second compound 1 µM
[5] = curve of first compound, second compound 3.16 µM
[6] = curve of first compound, second compound 10 µM
[7] = second compound 0.0316 µM, first compound 0.0316 µM
[8] = second compound 0.0316 µM, first compound 0.1 µM
[9] = second compound 0.1 µM, first compound 0.0316 µM
[10] = second compound 0.1 µM, first compound 0.1 µM
[11] = second compound 0.316 µM, first compound 0.0316 µM
[12] = second compound 0.316 µM, first compound 0.1 µM
[13] = second compound 1 µM, first compound 0.0316 µM
[14] = second compound 1 µM, first compound 0.1 µM
[15] = second compound 3.16 µM, first compound 0.0316 µM
[16] = second compound 3.16 µM, first compound 0.1 µM
[17] = second compound 10 µM, first compound 0.0316 µM
[18] = second compound 10 µM, first compound 0.1 µM
[19] = second compound 0.0316 µM, first compound 0.316 µM
[20] = second compound 0.0316 µM, first compound 1 µM
[21] = second compound 0.0316 µM, first compound 3.16 µM
[22] = second compound 0.0316 µM, first compound 10 µM
[23] = second compound 0.1 µM, first compound 0.316 µM
[24] = second compound 0.1 µM, first compound 1 µM
[25] = second compound 0.1 µM, first compound 3.16 µM
[26] = second compound 0.1 µM, first compound 10 µM
[27] = second compound 0.316 µM, first compound 0.316 µM
[28] = second compound 0.316 µM, first compound 1 µM
[29] = second compound 0.316 µM, first compound 3.16 µM
[30] = second compound 0.316 µM, first compound 10 µM
[31] = second compound 1 µM, first compound 0.316 µM
[32] = second compound 1 µM, first compound 1 µM
[33] = second compound 1 µM, first compound 3.16 µM
[34] = second compound 1 µM, first compound 10 µM
[35] = second compound 3.16 µM, first compound 0.316 µM
[36] = second compound 3.16 µM, first compound 1 µM
[37] = second compound 3.16 µM, first compound 3.16 µM
[38] = second compound 3.16 µM, first compound 10 µM
[39] = second compound 10 µM, first compound 0.316 µM
[40] = second compound 10 µM, first compound 1 µM
[41] = second compound 10 µM, first compound 3.16 µM
[42] = second compound 10 µM, first compound 10 µM
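Note: compound exposure lasted seven days before readout.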
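Throughout, for viability, T/C: 100% = DMSO vehicle control wells.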

## Cn1ncnc1[C@H]1c2n[nH]c(=O)c3cc(F)cc(c23)N[C@@H]1c1ccc(F)cc1 + CNC(=O)c1ccc(Nc2nc(OC3CCCC3)c3c(-c4ccc5nc(C)oc5c4)c[nH]c3n2)c(OC)c1
[1]
  IC50: > 100 nM
[2]
  IC50: > 100 nM
[3]
  IC50: < 0.316 nM
[4]
  IC50: < 0.316 nM
[5]
  IC50: < 0.316 nM
[6]
  IC50: < 0.316 nM
Second compound 0.0316 µM, first compound 0.000316 µM
  viability, T/C: 94.7%
Second compound 0.0316 µM, first compound 0.001 µM
  viability, T/C: 103%
Second compound 0.0316 µM, first compound 0.00316 µM
  viability, T/C: 107%
Second compound 0.0316 µM, first compound 0.01 µM
  viability, T/C: 105%
[7]
  viability, T/C: 107%
[8]
  viability, T/C: 113%
Second compound 0.1 µM, first compound 0.000316 µM
  viability, T/C: 63.8%
Second compound 0.1 µM, first compound 0.001 µM
  viability, T/C: 61.7%
Second compound 0.1 µM, first compound 0.00316 µM
  viability, T/C: 66.6%
Second compound 0.1 µM, first compound 0.01 µM
  viability, T/C: 62.3%
[9]
  viability, T/C: 69.9%
[10]
  viability, T/C: 68.5%
Second compound 0.316 µM, first compound 0.000316 µM
  viability, T/C: 36.9%
Second compound 0.316 µM, first compound 0.001 µM
  viability, T/C: 42.5%
Second compound 0.316 µM, first compound 0.00316 µM
  viability, T/C: 46.3%
Second compound 0.316 µM, first compound 0.01 µM
  viability, T/C: 46.2%
[11]
  viability, T/C: 49.4%
[12]
  viability, T/C: 48.6%
Second compound 1 µM, first compound 0.000316 µM
  viability, T/C: 27%
Second compound 1 µM, first compound 0.001 µM
  viability, T/C: 31.4%
Second compound 1 µM, first compound 0.00316 µM
  viability, T/C: 31.4%
Second compound 1 µM, first compound 0.01 µM
  viability, T/C: 33.2%
[13]
  viability, T/C: 40%
[14]
  viability, T/C: 30.2%
Second compound 3.16 µM, first compound 0.000316 µM
  viability, T/C: 27.1%
Second compound 3.16 µM, first compound 0.001 µM
  viability, T/C: 27.8%
Second compound 3.16 µM, first compound 0.00316 µM
  viability, T/C: 31.1%
Second compound 3.16 µM, first compound 0.01 µM
  viability, T/C: 30.9%
[15]
  viability, T/C: 33%
[16]
  viability, T/C: 30.7%
Second compound 10 µM, first compound 0.000316 µM
  viability, T/C: 30.3%
Second compound 10 µM, first compound 0.001 µM
  viability, T/C: 29.3%
Second compound 10 µM, first compound 0.00316 µM
  viability, T/C: 31.9%
Second compound 10 µM, first compound 0.01 µM
  viability, T/C: 30.9%
[17]
  viability, T/C: 36.2%
[18]
  viability, T/C: 32.3%

## COc1c(OCCCN2CCOCC2)ccc2c3n(c(=NC(=O)c4cnc(N)nc4)nc12)CCN3
Compound 0.00316 µM
  viability, T/C: 84.7% and 90.2%
Compound 0.01 µM
  viability, T/C: 91.5% and 103%
Compound 0.0316 µM
  viability, T/C: 63.3% and 52.9%
Compound 0.1 µM
  viability, T/C: 40% and 23.9%
Compound 0.316 µM
  viability, T/C: 23.7% and 13.1%
Compound 1 µM
  viability, T/C: 15.5% and 8.53%
Curve of compound
  IC50: 63.6 nM and 34.6 nM

## CC1COCCN1c1cc(C2(S(C)(=N)=O)CC2)nc(-c2ccnc3[nH]ccc23)n1 (stereo not given) + CNC(=O)c1ccc(Nc2nc(OC3CCCC3)c3c(-c4ccc5nc(C)oc5c4)c[nH]c3n2)c(OC)c1
[1]
  IC50: 2510 nM
[2]
  IC50: 1420 nM
[3]
  IC50: 400 nM
[4]
  IC50: < 31.6 nM
[5]
  IC50: < 31.6 nM
[6]
  IC50: < 31.6 nM
[7]
  viability, T/C: 109%
[8]
  viability, T/C: 109%
[19]
  viability, T/C: 105%
[20]
  viability, T/C: 114%
[21]
  viability, T/C: 35%
[22]
  viability, T/C: 13%
[9]
  viability, T/C: 80.7%
[10]
  viability, T/C: 77.5%
[23]
  viability, T/C: 78.7%
[24]
  viability, T/C: 60%
[25]
  viability, T/C: 26.6%
[26]
  viability, T/C: 13.7%
[11]
  viability, T/C: 55.8%
[12]
  viability, T/C: 57%
[27]
  viability, T/C: 51.5%
[28]
  viability, T/C: 39%
[29]
  viability, T/C: 15.8%
[30]
  viability, T/C: 10.5%
[13]
  viability, T/C: 35.6%
[14]
  viability, T/C: 33.4%
[31]
  viability, T/C: 31.2%
[32]
  viability, T/C: 22.9%
[33]
  viability, T/C: 10.2%
[34]
  viability, T/C: 5.07%
[15]
  viability, T/C: 33.9%
[16]
  viability, T/C: 31.6%
[35]
  viability, T/C: 28.9%
[36]
  viability, T/C: 21.6%
[37]
  viability, T/C: 12.2%
[38]
  viability, T/C: 5.1%
[17]
  viability, T/C: 34.5%
[18]
  viability, T/C: 35.6%
[39]
  viability, T/C: 33%
[40]
  viability, T/C: 24.9%
[41]
  viability, T/C: 13%
[42]
  viability, T/C: 7.43%

## COC1C=CCC(C)C(C)S(=O)(=O)NC(=O)c2ccc3c(c2)N(CC2CCC21)CC1(CCCc2cc(Cl)ccc21)CO3 (stereo not given) + CN1CCN(c2cc(C(=O)Nc3cc4cc(-c5cnn(C)c5)ccc4cn3)ccn2)CC1
[1]
  IC50: 4120 nM
[2]
  IC50: 1120 nM
[3]
  IC50: < 31.6 nM
[4]
  IC50: < 31.6 nM
[5]
  IC50: < 31.6 nM
[6]
  IC50: < 31.6 nM
[7]
  viability, T/C: 102%
[8]
  viability, T/C: 97.9%
[19]
  viability, T/C: 103%
[20]
  viability, T/C: 87.3%
[21]
  viability, T/C: 64.4%
[22]
  viability, T/C: 3.46%
[9]
  viability, T/C: 87.5%
[10]
  viability, T/C: 91.2%
[23]
  viability, T/C: 74%
[24]
  viability, T/C: 54.3%
[25]
  viability, T/C: 21.4%
[26]
  viability, T/C: 2.36%
[11]
  viability, T/C: 25.6%
[12]
  viability, T/C: 30.4%
[27]
  viability, T/C: 16.9%
[28]
  viability, T/C: 5.75%
[29]
  viability, T/C: 3.04%
[30]
  viability, T/C: 1.3%
[13]
  viability, T/C: 1.87%
[14]
  viability, T/C: 0.6%
[31]
  viability, T/C: 0.97%
[32]
  viability, T/C: 0.6%
[33]
  viability, T/C: 0.3%
[34]
  viability, T/C: 0.24%
[15]
  viability, T/C: 1.99%
[16]
  viability, T/C: 0.97%
[35]
  viability, T/C: 1.2%
[36]
  viability, T/C: 0.98%
[37]
  viability, T/C: 1.26%
[38]
  viability, T/C: 0.58%
[17]
  viability, T/C: 0.93%
[18]
  viability, T/C: 1.11%
[39]
  viability, T/C: 1.01%
[40]
  viability, T/C: 0.62%
[41]
  viability, T/C: 1.39%
[42]
  viability, T/C: 0.26%

## CC1(C)CCC(CN2CCN(c3ccc(C(=O)NS(=O)(=O)c4ccc(NCC5CCOCC5)c([N+](=O)[O-])c4)c(Oc4cnc5[nH]ccc5c4)c3)CC2)=C(c2ccc(Cl)cc2)C1
Compound 0.0316 µM
  viability, T/C: 94.3% and 88.2%
Compound 0.1 µM
  viability, T/C: 85.8% and 90.3%
Compound 0.316 µM
  viability, T/C: 97% and 104%
Compound 1 µM
  viability, T/C: 86.5% and 99.3%
Compound 3.16 µM
  viability, T/C: 106% and 110%
Compound 10 µM
  viability, T/C: 10.5% and 10%
Curve of compound
  IC50: 5800 nM and 5950 nM
